{"source": "patent US20200215024A1", "about": "“CANNABINOID FORMULATIONS FOR TREATING ALCOHOL HANGOVER” (Replennabis LLC, priority 2019, published 2020)", "origin": "cited, not measured here", "details": "in vivo"}
{"smiles": "CCCCCc1cc(O)c2c(c1)OC(C)(C)[C@@H]1CCC(C)=C[C@@H]21", "note": "[THC, tetrahydrocannabinol]", "values": [{"measurement": "oral bioavailability", "result": "less than 8%"}]}
